Reference: US9493474B2, “Inhibitors of the renal outer medullary potassium channel” (Merck Sharp & Dohme Corp., priority 2011, dated 2016)

Key:
Kir1.1 (ROMK1) = Kir1.1 (ROMK1) (Homo sapiens (Human), UniProt P48048); assay: Electrophysiology Assay (whole cell voltage clamp, IonWorks Quattro); format: cell-based; conditions: Chinese hamster ovary cells stably expressing Kir1.1; block at voltage step to 0 mV, 6 minutes compound incubation; read-out: EP Assay IC50
Description: (§1) Several assays may be used to measure functional inhibition of the ROMK channel by compounds of the instant invention. One assay that can be used is an electrophysiology assay that measures the electrical current that is generated as potassium permeates through the channel. Another ROMK functional assay makes use of the ability of thallium to permeate through open ROMK channels and increase the fluorescence of a dye previously loaded into the cells. Under control conditions, cells loaded with dye and exposed to thallium-containing medium display a time-dependent increase in fluorescence, the rate of which depends on number of functional channels. When cells are incubated in the presence of a channel inhibitor, the increase in fluorescence is attenuated in a concentration-dependent manner, and IC50 values of inhibition by compounds can be accurately determined. This assay has been established with cell lines expressing either human, or rat ROMK channels, and operates in 384-well format.
Block of Kir1.1 (ROMK1) currents was examined by whole cell voltage clamp (Hamill et. al. Pfluegers Archives 391:85-100 (1981)) using the IonWorks® Quattro automated electrophysiology platform (Molecular Devices, Sunnyvale, Calif.). Chinese hamster ovary cells stably expressing Kir1.1 channels were maintained in T-75 flasks in cell culture media in a humidified 10% CO2 incubator at 37° C. Prior to an experiment, Kir1.1 expression was induced by overnight incubation with 1 mM sodium butyrate. On the day of the experiment, cells were dissociated with 2.5 ml of Versene™ (Invitrogen 15040-066) for approximately 6 minutes at 37° C. and suspended in 10 ml of bath solution containing (in mM): 150 NaCl, 10 KCl, 2.7 CaCl2, 0.5 MgCl2, 5 HEPES, pH 7.4. After centrifugation, the cell pellet was resuspended in approximately 4.0 ml of bath solution and placed in the IonWorks® instrument. The intracellular solution consisted of (in mM): 80 K gluconate, 40 KCl, 20 KF, 3.2 MgCl2, 3 EGTA, 5 Hepes, pH 7.4. Electrical access to the cytoplasm was achieved by perforation in 0.13 mg/ml amphotericin B for 4 minutes. Amphotericin B (Sigma A-4888) was prepared as a 40 mg/ml solution in DMSO.
Voltage protocols and current recordings were performed using the IonWorks® HT software/hardware system. Currents were sampled at 1 kHz. No correction for liquid junction potentials was used. The test pulse, consisting of a 100 ms step to 0 mV from a holding potential of −70 mV, followed by a 100 ms voltage ramp from −70 mV to +70 mV, was applied before and after a 6 minutes compound incubation period. Test compounds were prepared by diluting DMSO stock solutions into the bath solution at 3× the final concentration and placed in the instrument in 96-well polypropylene plates. Current amplitudes were measured using the IonWorks® software. To assess compound potency, the fractional block during the voltage step to 0 mV was calculated in Microsoft® Excel (Microsoft, Redmond, Calif.), and dose-response curves were fitted with Igor Pro 4.0 (WaveMetrics, Lake Oswego, Oreg.).

hROMK (hKir1.1) = hROMK (hKir1.1) (Homo sapiens (Human), UniProt P48048); assay: Thallium Flux Assay; format: cell-based; conditions: HEK293 cells stably expressing hROMK (hKir1.1); FLIPR-Tetra, 30 min compound incubation
Description: as §1
HEK293 cells stably expressing hROMK (hKir1.1) were grown at 37° C. in a 10% CO2 humidified incubator in complete growth media: Dulbecco's Modified Eagle Medium supplemented with non-essential amino acids, Penicillin/Streptomycin/Glutamine, G418 and FBS. At >80% confluency, the media was aspirated from the flask and the sample was rinsed with 10 ml Calcium/Magnesium-free PBS. […] To dislodge the cell, the side of the flask was gently banged with a hand. The cells were triturated completely and then transferred to 25 ml complete media. The sample was then centrifuged at 1,500 rpm for 6 minutes, followed by resuspension in complete growth media and then cell concentration was determined. […] Under ideal growth conditions and appropriate tissue culture practices, this cell line is stable for 40-45 passages.
• FluxOR™ Reagent (Component A) • FluxOR™ Assay Buffer (Component B)—10× Concentrate • PowerLoad™ Concentrate (Component C)—100× Concentrate • Probenecid (Component D)—Lyophilized sample is kept at −20° C. Water soluble, 100× after solubilization in 1 ml water. […] Store at 4° C. • Thallium sulfate (Tl2SO4) Concentrate (Component G)—50 mM in water. […] Can be stored at room temperature • Stimulant Buffer (prepared at 5× final concentration in 1× FluxOR™ Chloride-Free Buffer): 7.5 mM Thallium sulfate and 0.75 mM Potassium sulfate (to give a final assay concentration of 3 mM Thallium/0.3 mM Potassium). Store at 4° C. when not in use. If kept sterile, this solution is good for months. Assay Protocol—
The ROMK channel functional thallium flux assay is performed in 384 wells, using the FLIPR-Tetra instrument. HEK-hKir1.1 cells are seeded in Poly-D-Lysine microplates and kept in a 37° C.-10% CO2 incubator overnight. On the day of the experiment, the growth media is replaced with the FluxOR™ reagent loading buffer and incubated, protected from light, at ambient temperature (23-25° C.) for 90 min. The loading buffer is replaced with assay buffer±test compound followed by 30 min incubation at ambient temperature, where the Thallium/Potassium stimulant is added to the microplate.
• 1. Seed HEK-hKir1.1 cells (50 μl at 20,000 cells/well) in 384-well PDL coated Microplates • 2. Allow cells to adhere overnight in humidified 37° C./10% CO2 incubator • 3. Completely remove cell growth media from microplate and replace with 25 μl loading buffer • 4. Incubate Microplate at room temperature, protected form light, for 90 min • 5. Remove loading buffer and replace with 25 μl 1× Assay Buffer±test compound. • 6. Incubate microplate at room temperature, protected form light, for 30 min • 7. […] Excitation=400 nm, Emission=460 & 580 nm. Collect data for 10 min. Data Calculation—
The fluorescence intensity of wells containing 3 μM of a standard control ROMK inhibitor of the present invention is used to define the ROMK-sensitive component of thallium flux. Fluorescence in the presence of test compounds is normalized to control values to provide % fluorescence change.

Kir1.1 (ROMK1), sequence (P48048 whole entry, species assumed): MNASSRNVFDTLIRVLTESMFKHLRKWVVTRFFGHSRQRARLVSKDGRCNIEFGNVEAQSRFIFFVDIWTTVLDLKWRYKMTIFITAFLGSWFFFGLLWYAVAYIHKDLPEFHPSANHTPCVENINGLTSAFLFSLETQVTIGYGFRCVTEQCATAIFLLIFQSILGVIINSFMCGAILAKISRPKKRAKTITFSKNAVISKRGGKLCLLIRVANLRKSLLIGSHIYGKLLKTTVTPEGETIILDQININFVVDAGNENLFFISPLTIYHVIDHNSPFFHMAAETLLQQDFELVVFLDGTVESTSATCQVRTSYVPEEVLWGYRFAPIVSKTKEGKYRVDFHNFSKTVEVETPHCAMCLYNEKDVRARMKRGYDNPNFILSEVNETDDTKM
hROMK (hKir1.1), sequence (P48048 whole entry): as the sequence (P48048 whole entry, species assumed) above

Row | Structure (SMILES) | IC50 (Kir1.1 (ROMK1)) [nM] | IC50 (hROMK (hKir1.1)) [nM]
1 | Cc1c([C@@H](O)CN2CCC3CN(CC(O)c4ccc(C#N)cn4)CC32)ccc2c1COC2=O (single isomer, unassigned) [Example 7A] | 47 | 152
2 | Cc1c([C@@H](O)CN2CCC3CN(CC(O)c4ccc(C#N)cn4)CC32)ccc2c1COC2=O (single isomer, unassigned) [Example 7B] | 2400 | 566
3 | Cc1c([C@@H](O)CN2CCC3CN(S(=O)(=O)c4ccc(C#N)cc4)CC32)ccc2c1COC2=O (single isomer, unassigned) [Example 8B] |  | 662
4 | Cc1c([C@@H](O)CN2CCC3(CCCN3C[C@H](O)c3ccc4c(c3C)COC4=O)C2)ccc2c1COC2=O (single isomer, unassigned) [Example 10B] | 184 | 76
5 | Cc1c([C@@H](O)CN2C(C)CC3CN(CC(O)c4ccc(C#N)cn4)CC32)ccc2c1COC2=O (single isomer, unassigned) [Example 11A] |  | 93
6 | Cc1c([C@@H](O)CN2C(C)CC3CN(CC(O)c4ccc(C#N)cn4)CC32)ccc2c1COC2=O (single isomer, unassigned) [Example 11B] | 53 | 91
7 | Cc1cc(S(=O)(=O)N2CCCC23CCN(C[C@H](O)c2ccc4c(c2C)COC4=O)C3)ccc1-n1cnnn1 (single isomer, unassigned) [Example 18A] | 79 | 138
8 | Cc1cc(S(=O)(=O)N2CCCC23CCN(C[C@H](O)c2ccc4c(c2C)COC4=O)C3)ccc1-n1cnnn1 (single isomer, unassigned) [Example 18B] | 125 | 294
9 | Cc1c([C@@H](O)CN2CC3CN(CC(O)c4ccc(C#N)cn4)C3C2)ccc2c1COC2=O (single isomer, unassigned) [Example 22] |  | 916
10 | Cc1c([C@@H](O)CN2CC3CN(CC(O)c4ccc(C#N)cn4)C3C2)ccc2c1COC2=O (single isomer, unassigned) [Example 23] | 1800 | 540
11 | Cc1c([C@@H](O)CN2CCCC3(CCN(C[C@H](O)c4ccc5c(c4C)COC5=O)C3)C2)ccc2c1COC2=O (stereo partly drawn) [Example 1, 5,5′-{2,7-Diazaspiro[4.5]decane-2,7-diylbis[(1R)-1-hydroxyethane-2,1-diyl]}bis(4-methyl-2-benzofuran-1(3H)-one)] | 117 | 274
12 | Cc1c([C@@H](O)CN2CC3CCN(C(=O)c4ccc(C#N)cn4)CC3C2)ccc2c1COC2=O (stereo partly drawn) [Example 3, 6-({2-[(2R)-2-Hydroxy-2-(4-methyl-1-oxo-1,3-dihydro-2-benzofuran-5-yl)ethyl]octahydro-5H-pyrrolo[3,4-c]pyridine-5-yl}carbonyl)pyridine-3-carbonitrile] |  | 865
13 | Cc1c([C@@H](O)CN2CCCC3(CCCN3C[C@H](O)c3ccc4c(c3C)COC4=O)C2)ccc2c1COC2=O (stereo partly drawn) [Example 5, 5,5′-{1,7-Diazaspiro[4.5]decane-1,7-diylbis[(1R)-1-hydroxyethane-2,1-diyl]}bis(4-methyl-2-benzofuran-1(3H)-one)] | 348 | 737
14 | Cc1c([C@@H](O)CN2CCCC3(CCCN(C[C@H](O)c4ccc5c(c4C)COC5=O)C3)C2)ccc2c1COC2=O [Example 6, 5,5′-{2,8-Diazaspiro[5.5]undecane-2,8-diylbis[(1R)-1-hydroxyethane-2,1-diyl]}bis(4-methyl-2-benzofuran-1(3H)-one)] | 201 | 359
15 | N#Cc1ccc(S(=O)(=O)N2CCC3CN(C[C@H](O)c4ccc5c(c4)COC5=O)CC32)cc1 (stereo partly drawn) [Example 9, 4-(5-((R)-2-Hydroxy-2-(1-oxo-1,3-dihydroisobenzofuran-5-yl)ethyl)hexahydropyrrolo[3,4-b]pyrrol-1(2H)-ylsulfonyl)benzonitrile] |  | 234
16 | Cc1c([C@@H](O)CN2CCC3(CCCN(C(=O)c4ccc(-n5cnnn5)nc4)C3)C2)ccc2c1COC2=O (stereo partly drawn) [Example 14, 5-((1R)-2-(7-(6-(1H-tetrazol-1-yl)nicotinoyl)-2,7-diazaspiro[4.5]decan-2-yl)-1-hydroxyethyl)-4-methylisobenzofuran-1(3H)-one] | 108 | 241
17 | Cc1c([C@@H](O)CN2CC3CCN(C(=O)c4ccc(-n5cnnn5)nc4)CC3C2)ccc2c1COC2=O (stereo partly drawn) [Example 15, 5-((1R)-2-(5-(6-(1H-Tetrazol-1-yl)nicotinoyl)-1H-pyrrolo[3,4-c]_yridine-2(3H,3aH,4H,5H,6H,7H,7aH)-yl)-1-hydroxyethyl)-4-methylisobenzofuran-1(3H)-one] | 200 | 103
18 | Cc1c([C@@H](O)CN2CCC3CN(C(=O)c4ccc(-n5cnnn5)cn4)CC32)ccc2c1COC2=O (stereo partly drawn) [Example 16, 5-((1R)-2-(5-(5-(1H-tetrazol-1-yl)picolinoyl)hexahydropyrrolo[3,4-b]pyrrol-1(2H)-yl)-1-hydroxyethyl)-4-methylisobenzofuran-1(3H)-one] | 850 | 602
19 | Cc1c([C@@H](O)CN2CCC3CN(S(=O)(=O)c4ccc(-n5cnnn5)cc4)CC32)ccc2c1COC2=O (stereo partly drawn) [Example 20, 5-((1R)-2-(5-(4-(1H-Tetrazol-1-yl)phenylsulfonyl)hexahydropyrrolo[3,4-b]pyrrol-1(2H)-yl)-1-hydroxyethyl)-4-methylisobenzofuran-1(3H)-one] |  | 1050
